Converted amounts (≈) assume the structure as drawn.
How the values were obtained:
[1] = tested on: methicillin-resistant Staphylococcus aureus (MRSA) strain BAA-1717 (USA-300); assay: MIC, spiral gradient endpoint assay, MRSA BAA-1717; assay type: cell-based
[2] = tested on: Burkholderia pseudomallei Human/Blood/OH/US/1994; assay: microbe, parasite or virus in culture; assay type: cell-based
[3] = tested on: methicillin-resistant Staphylococcus aureus (MRSA) strain BAA-1707 (USA-400; MW2); assay: MIC, spiral gradient endpoint assay, MRSA BAA-1707; assay type: cell-based
[4] = tested on: Escherichia coli D21f2tolC; assay: MIC, spiral gradient endpoint assay, E. coli D21f2tolC; assay type: cell-based
[5] = tested on: Francisella tularensis SCHU4; assay: microbe, parasite or virus in culture; assay type: cell-based
Burkholderia mallei CHN7 = assay: microbe, parasite or virus in culture; assay type: cell-based
[6] = tested on: vancomycin-intermediate Staphylococcus aureus (VISA) strain NRS 1; assay: MIC, spiral gradient endpoint assay, VISA NRS 1; assay type: cell-based
[7] = tested on: Staphylococcus aureus ATCC 12600; assay: MIC, spiral gradient endpoint assay, S. aureus ATCC 12600; assay type: cell-based; details: ATCC12600
[8] = tested on: linezolid-resistant Staphylococcus aureus (LRSA) strain NRS 120; assay: MIC, spiral gradient endpoint assay, LRSA NRS 120; assay type: cell-based
[9] = tested on: Mycobacterium tuberculosis H37Rv; assay: MIC, microplate Alamar Blue assay, M. tuberculosis; assay type: cell-based
[10] = tested on: Acinetobacter baumannii ATCC 19606; assay: MIC, spiral gradient endpoint assay, A. baumannii; assay type: cell-based
[11] = tested on: rifampin-resistant Staphylococcus aureus (RRSA) strain ATCC 12600-Rif (H526N); assay: MIC, spiral gradient endpoint assay, RRSA 12600-Rif; assay type: cell-based
[12] = molecular target: E. coli RNA polymerase σ^70 holoenzyme (Escherichia coli, UniProt P0A8T7+P0A8V2); assay: Fluorescence-detected RNA polymerase assay, E. coli RNA polymerase; assay type: biochemical; details: read-out: IC50 E. coli RNAP
Chain of E. coli RNA polymerase σ^70 holoenzyme (P0A8T7 whole entry): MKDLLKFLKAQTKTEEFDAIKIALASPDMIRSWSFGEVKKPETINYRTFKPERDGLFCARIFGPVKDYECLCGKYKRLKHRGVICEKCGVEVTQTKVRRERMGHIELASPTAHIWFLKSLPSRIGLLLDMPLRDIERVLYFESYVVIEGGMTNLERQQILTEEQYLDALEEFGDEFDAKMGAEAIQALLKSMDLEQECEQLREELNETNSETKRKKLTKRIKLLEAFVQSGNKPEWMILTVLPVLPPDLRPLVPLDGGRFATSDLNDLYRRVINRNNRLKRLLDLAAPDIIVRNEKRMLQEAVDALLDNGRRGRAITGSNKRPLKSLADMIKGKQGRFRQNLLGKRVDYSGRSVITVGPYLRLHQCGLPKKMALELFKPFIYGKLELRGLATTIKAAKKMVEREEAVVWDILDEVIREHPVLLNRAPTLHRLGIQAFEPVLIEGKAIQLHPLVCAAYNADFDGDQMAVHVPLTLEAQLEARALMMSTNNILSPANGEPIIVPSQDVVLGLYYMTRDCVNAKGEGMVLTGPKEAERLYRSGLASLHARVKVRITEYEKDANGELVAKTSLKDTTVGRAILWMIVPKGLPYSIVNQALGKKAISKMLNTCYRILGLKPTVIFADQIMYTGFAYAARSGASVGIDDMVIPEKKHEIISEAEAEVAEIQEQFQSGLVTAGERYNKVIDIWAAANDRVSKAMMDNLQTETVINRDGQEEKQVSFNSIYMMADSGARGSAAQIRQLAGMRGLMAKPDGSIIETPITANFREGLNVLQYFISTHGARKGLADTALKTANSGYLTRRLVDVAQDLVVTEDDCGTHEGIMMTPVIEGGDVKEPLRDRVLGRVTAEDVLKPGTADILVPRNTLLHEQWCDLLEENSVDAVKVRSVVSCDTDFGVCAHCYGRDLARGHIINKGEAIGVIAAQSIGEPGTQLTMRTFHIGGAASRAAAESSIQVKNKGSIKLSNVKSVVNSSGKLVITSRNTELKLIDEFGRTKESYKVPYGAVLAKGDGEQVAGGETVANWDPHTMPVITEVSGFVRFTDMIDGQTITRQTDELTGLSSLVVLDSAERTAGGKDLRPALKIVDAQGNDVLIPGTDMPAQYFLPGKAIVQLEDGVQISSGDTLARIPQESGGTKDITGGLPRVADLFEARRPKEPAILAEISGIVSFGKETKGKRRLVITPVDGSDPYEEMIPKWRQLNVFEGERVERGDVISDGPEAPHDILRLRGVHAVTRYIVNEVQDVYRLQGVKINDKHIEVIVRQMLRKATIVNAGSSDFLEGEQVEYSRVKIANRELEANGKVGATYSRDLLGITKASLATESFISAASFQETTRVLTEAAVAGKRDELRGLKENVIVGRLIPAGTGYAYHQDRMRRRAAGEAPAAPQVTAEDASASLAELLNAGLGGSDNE
Chain of E. coli RNA polymerase σ^70 holoenzyme (P0A800 whole entry, further chain): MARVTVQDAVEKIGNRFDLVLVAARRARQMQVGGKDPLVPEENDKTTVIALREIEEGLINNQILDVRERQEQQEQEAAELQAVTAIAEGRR
Chain of E. coli RNA polymerase σ^70 holoenzyme (P0A8V2 whole entry): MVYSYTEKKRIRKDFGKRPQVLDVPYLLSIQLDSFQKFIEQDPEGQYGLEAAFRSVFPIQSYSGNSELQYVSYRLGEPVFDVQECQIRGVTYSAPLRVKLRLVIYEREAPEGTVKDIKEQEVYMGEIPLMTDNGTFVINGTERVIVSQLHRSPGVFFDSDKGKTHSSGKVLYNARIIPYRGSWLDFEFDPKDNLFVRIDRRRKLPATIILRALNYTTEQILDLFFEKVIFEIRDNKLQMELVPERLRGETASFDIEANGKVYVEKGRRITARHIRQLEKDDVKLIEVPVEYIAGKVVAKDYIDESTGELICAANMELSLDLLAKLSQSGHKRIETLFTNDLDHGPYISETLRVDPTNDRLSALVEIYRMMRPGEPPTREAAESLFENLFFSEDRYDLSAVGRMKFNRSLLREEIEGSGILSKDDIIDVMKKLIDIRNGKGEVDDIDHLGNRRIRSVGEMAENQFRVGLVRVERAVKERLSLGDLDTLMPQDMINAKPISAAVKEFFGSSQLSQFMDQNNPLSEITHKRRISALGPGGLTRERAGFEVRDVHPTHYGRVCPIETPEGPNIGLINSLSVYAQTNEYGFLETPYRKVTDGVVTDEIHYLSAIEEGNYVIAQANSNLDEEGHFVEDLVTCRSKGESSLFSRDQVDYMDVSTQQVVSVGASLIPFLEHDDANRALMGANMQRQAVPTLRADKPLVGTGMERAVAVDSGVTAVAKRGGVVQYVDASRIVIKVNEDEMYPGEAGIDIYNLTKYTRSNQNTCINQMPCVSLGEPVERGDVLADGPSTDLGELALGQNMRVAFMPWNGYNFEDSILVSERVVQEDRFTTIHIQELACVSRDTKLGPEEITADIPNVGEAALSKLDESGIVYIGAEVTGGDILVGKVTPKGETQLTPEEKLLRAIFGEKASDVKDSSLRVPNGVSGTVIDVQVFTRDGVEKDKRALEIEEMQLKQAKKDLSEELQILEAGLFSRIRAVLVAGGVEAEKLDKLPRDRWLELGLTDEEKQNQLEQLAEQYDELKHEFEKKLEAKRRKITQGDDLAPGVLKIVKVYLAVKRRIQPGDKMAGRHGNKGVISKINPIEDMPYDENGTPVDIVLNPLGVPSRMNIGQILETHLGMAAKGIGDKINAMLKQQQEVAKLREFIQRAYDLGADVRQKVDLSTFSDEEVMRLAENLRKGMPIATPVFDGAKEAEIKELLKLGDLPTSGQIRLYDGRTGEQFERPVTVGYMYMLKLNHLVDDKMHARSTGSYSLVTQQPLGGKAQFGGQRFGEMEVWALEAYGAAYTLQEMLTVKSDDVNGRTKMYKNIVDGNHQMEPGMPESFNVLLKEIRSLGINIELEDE
Chain of E. coli RNA polymerase σ^70 holoenzyme (P00579 whole entry, further chain): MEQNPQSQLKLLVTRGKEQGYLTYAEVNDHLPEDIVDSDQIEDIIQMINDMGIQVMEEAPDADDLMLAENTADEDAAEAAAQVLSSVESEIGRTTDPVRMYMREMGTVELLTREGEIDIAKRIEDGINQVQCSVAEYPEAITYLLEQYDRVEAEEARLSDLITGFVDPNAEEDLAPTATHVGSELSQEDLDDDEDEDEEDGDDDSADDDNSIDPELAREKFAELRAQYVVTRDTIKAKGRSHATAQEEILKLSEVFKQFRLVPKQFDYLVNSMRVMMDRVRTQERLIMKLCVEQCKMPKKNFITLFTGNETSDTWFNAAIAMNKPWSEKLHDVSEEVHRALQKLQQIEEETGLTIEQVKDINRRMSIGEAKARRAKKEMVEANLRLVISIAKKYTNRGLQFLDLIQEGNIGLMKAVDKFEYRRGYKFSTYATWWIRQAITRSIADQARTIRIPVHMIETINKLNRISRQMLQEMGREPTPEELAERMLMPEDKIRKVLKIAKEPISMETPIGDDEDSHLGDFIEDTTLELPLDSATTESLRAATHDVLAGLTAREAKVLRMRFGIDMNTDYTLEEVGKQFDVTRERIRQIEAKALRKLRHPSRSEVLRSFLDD
Chain of E. coli RNA polymerase σ^70 holoenzyme (P0A7Z4 whole entry, further chain): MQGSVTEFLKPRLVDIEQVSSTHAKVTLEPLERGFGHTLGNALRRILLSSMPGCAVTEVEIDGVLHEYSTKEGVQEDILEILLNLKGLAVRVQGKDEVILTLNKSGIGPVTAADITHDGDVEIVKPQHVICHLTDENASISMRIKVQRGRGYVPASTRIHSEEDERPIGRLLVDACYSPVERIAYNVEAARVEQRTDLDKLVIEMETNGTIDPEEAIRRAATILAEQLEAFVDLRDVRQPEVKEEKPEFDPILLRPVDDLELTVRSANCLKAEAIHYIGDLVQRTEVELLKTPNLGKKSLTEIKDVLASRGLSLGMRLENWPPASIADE

[13] = tested on: Bacillus anthracis Vollum 1b; assay: microbe, parasite or virus in culture; assay type: cell-based
Brucella melitensis 16M = assay: microbe, parasite or virus in culture; assay type: cell-based
[14] = tested on: methicillin-resistant Staphylococcus aureus (MRSA) strain BAA-1707 (USA-400, MW2); assay: Antibacterial efficacy in mouse model of Staphylococcus aureus systemic infection (peritonitis model); assay type: in vivo, Swiss Webster mice; details: mice
Yersinia pestis C092 = assay: microbe, parasite or virus in culture; assay type: cell-based
[15] = molecular target: S. aureus RNA polymerase core enzyme, S. aureus σ^A (Staphylococcus aureus, UniProt P47768+Q2G0N5); assay: Fluorescence-detected RNA polymerase assay, S. aureus RNA polymerase; assay type: biochemical; details: read-out: IC50 S. aureus RNAP
[16] = molecular target: M. tuberculosis RNA polymerase core enzyme, M. tuberculosis σ^A (Mycobacterium tuberculosis, UniProt P9WGY7+P9WGY9); assay: Fluorescence-detected RNA polymerase assay, M. tuberculosis RNA polymerase; assay type: biochemical; details: read-out: IC50 M. tuberculosis RNAP
[17] = intravenous administration 0 h post-infection

Question: Which results are given for COC(=O)N/C=C/CCC(C)c1cc(O)c(C(=O)C(C)=Cc2ccc(CCC(F)(F)F)s2)c(=O)o1 (mixture of isomers) [APY61, methyl (E)-5-(5-((E/Z)-3-(5-(3,3,3-trifluoropropyl)thiophen-2-yl)-2-methylacryloyl)-4-hydroxy-6-oxo-6H-pyran-2-yl)hex-1-enylcarbamate]?
Answer: MIC ([1]; Staphylococcus aureus, read-out: MIC S. aureus MRSA BAA-1717): 0.9 µg/mL; MIC ([2]; Burkholderia pseudomallei, read-out: MIC B. pseudomallei Human/Blood/OH): 30 µg/mL; MIC ([3]; Staphylococcus aureus, read-out: MIC S. aureus MRSA BAA-1707): 0.9 µg/mL; MIC ([4]; Escherichia coli, D21F2TOLC, read-out: MIC E. coli D21f2toIC): 0.2 µg/mL; MIC ([5]; Francisella tularensis, SCHU4, read-out: MIC F. tularensis SCHU4): 30 µg/mL; MIC (Burkholderia mallei CHN7; Burkholderia mallei, CHN7, read-out: MIC B. mallei CHN7): 30 µg/mL; MIC ([6]; Staphylococcus aureus, read-out: MIC S. aureus VISA NRS1): 0.4 µg/mL; MIC ([7]; Staphylococcus aureus ATCC 12600): 0.7 µg/mL; MIC ([8]; Staphylococcus aureus, NRS120, read-out: MIC S. aureus LRSA NRS120): 0.4 µg/mL; MIC [9]: 10 µg/mL; MIC ([10]; ATCC19606, Acinetobacter baumannii ATCC 19606): 10 µg/mL; MIC ([11]; Staphylococcus aureus, ATCC12600, read-out: MIC S. aureus RRSA 12600-Rif): 1 µg/mL; IC50 [12]: 0.02 µM; MIC ([13]; Bacillus anthracis, VOLLUM1B, read-out: MIC B. anthracis Vollum-1b): 6 µg/mL; MIC (Brucella melitensis 16M; Brucella melitensis, 16M, read-out: MIC B. melitensis 16M): > 50 µg/mL; PD50 [14, 17]: 20 mg/kg

Question: Which “MIC S. aureus MRSA BAA-1717” value [1] does the source give for CCCC/C(C)=C/C=C(\C)C(=O)c1c(O)cc([C@H](C)CC/C=C/NC(=O)OC)oc1=O [Myx B, myxopyronin B, reference compound] here?
Answer: 0.8 µg/mL (≈ 1.85 µM)

Question: What about the “MIC B. pseudomallei Human/Blood/OH” value [2] of the same compound?
Answer: 30 µg/mL (≈ 69.5 µM)

Question: What about the “MIC Y. pestis C092” value (Yersinia pestis C092) of the same compound?
Answer: 50 µg/mL (≈ 116 µM)

Question: And the “MIC S. aureus MRSA BAA-1707” value [3]?
Answer: 0.9 µg/mL (≈ 2.09 µM)

Question: What about the “MIC E. coli D21f2toIC” value ([4]; Escherichia coli D21f2tolC) of the same compound?
Answer: 0.1 µg/mL (≈ 0.232 µM)

Question: And the IC50 [15]?
Answer: 0.07 µM

Question: What about the IC50 [16] of the same compound?
Answer: 0.1 µM

Question: And the “MIC F. tularensis SCHU4” value [5]?
Answer: 2 µg/mL (≈ 4.63 µM)

Question: What about the “MIC B. mallei CHN7” value (Burkholderia mallei CHN7) of the same compound?
Answer: 6 µg/mL (≈ 13.9 µM)

Question: What about the “MIC S. aureus VISA NRS1” value [6] of the same compound?
Answer: 0.5 µg/mL (≈ 1.16 µM)

Question: What about the “MIC S. aureus 12600” value ([7]; Staphylococcus aureus) of the same compound?
Answer: 0.8 µg/mL (≈ 1.85 µM)

Question: What about the “MIC S. aureus LRSA NRS120” value [8] of the same compound?
Answer: 0.5 µg/mL (≈ 1.16 µM)

Question: And the “MIC M. tuberculosis H37Rv” value [9]?
Answer: 2 µg/mL (≈ 4.63 µM)

Question: And the “inhibition of Acinetobacter baumannii (in words)” value [10]?
Answer: does not inhibit

Question: What about the “MIC A. baumannii 19606” value ([10]; Acinetobacter baumannii ATCC 19606) of the same compound?
Answer: >40 µg/mL

Question: And the “MIC S. aureus RRSA 12600-Rif” value [11]?
Answer: 1 µg/mL (≈ 2.32 µM)

Question: What about the IC50 [12] of the same compound?
Answer: 0.01 µM

Question: What about the “MIC B. anthracis Vollum-1b” value [13] of the same compound?
Answer: 6 µg/mL (≈ 13.9 µM)

Question: What about the “MIC B. melitensis 16M” value (Brucella melitensis 16M) of the same compound?
Answer: 2 µg/mL (≈ 4.63 µM)

Question: And the PD50 [14, 17]?
Answer: 20 mg/kg

Question: And the PD50 ([14]; oral administration 1 h pre-infection)?
Answer: 50 mg/kg

Reference: patent publication US9592221B2, “Antibacterial agents: aryl myxopyronin derivatives” (priority 2012, dated 2017)
